According to patent US20160102074A1, “SUBSTITUTED AMIDE COMPOUNDS” (PFIZER INC., priority 2014, published 2016):

How the values were obtained:
human PCSK9 [1] = test: PCSK9 AlphaLISA assay, PCSK9 lowering in WT7 cells; conditions: WT7 cells (Huh7 stably over-expressing human PCSK9), secreted PCSK9 by AlphaLISA, overnight incubation (16-24 h), top concentration 20 μM; read-out: Cell Based PCSK9 IC50
From the text: PCSK9 Lowering in WT7 Cells
An in-vitro AlphaLISA assay (Perkin Elmer) was developed in order to quantitate the level of PCSK9 secreted into the cell culture media following compound treatment. To detect and measure PCSK9 protein a mouse monoclonal anti-human PCSK9 antibody was coupled to AlphaLISA acceptor beads by an external vendor (Perkin Elmer) and a second rabbit monoclonal anti-human PCSK9 antibody with an epitope distinct from that of the acceptor beads was biotinylated using the EZ link NHS-LC-LC-Biotin kit (Life Technologies #21338). Streptavidin coated-donor beads (Perkin Elmer) are also included in the assay mixture which then binds the biotinylated anti-PCSK9 antibody and in the presence of PCSK9 this donor complex and acceptor beads are brought into close proximity. Upon excitation of the donor beads at 680 nm singlet oxygen molecules are released that trigger an energy transfer cascade within the acceptor beads resolving as a single peak of light emitted at 615 nm. The ability of compound to modulate PCSK9 protein levels in conditioned media by AlphaLISA was assessed in the human hepatocellular carcinoma cell line Huh7, stably over-expressing human PCSK9. This cell line, termed WT7, was established by transfecting Huh7 cells with an in-house modified pcDNA 3.1 (+) Zeo expression vector (Life Technologies) containing the full-length human PCSK9 sequence (NCBI reference identifier, NM_174936.3, where coding sequence start annotated at position 363) and a c-terminal V5 and 6×-His tag. Following plasmid transfection the stable WT7 clone was identified and maintained under Zeocin selection. Compound screening was performed in 384-well plates where WT7 cells were plated at a density of 7500 cells per well in 20 μL of tissue culture media containing compound in an eleven point, 0.5 log dilution format at a high treatment concentration of 20 μM in a final volume of 0.5% DMSO. In additional to these test compound conditions each screening plate also included wells that contained 20 μM puromycin as a positive assay control defined as high percent effect, HPE, as well as wells containing media in 0.5% DMSO as a negative treatment control defined as zero percent effect, ZPE. After overnight compound incubation (16-24 h) the tissue culture media was collected and an aliquot from each sample was transferred to individual wells of a 384-well white Optiplate (Perkin Elmer). The coupled antibodies and donor beads were added to the assay plates in a buffer composed of 30 mM Tris pH 7.4, 0.02% Tween-20 and 0.02% Casein. Anti-PCSK9 acceptor beads (final concentration of 10 μg/mL) and anti-PCSK9 biotinylated antibody (final concentration of 3 nM) were added and incubated for 30 minutes at room temperature followed by the addition of the streptavidin donor beads (final concentration 40 μg/mL) for an additional 60 minutes. Additionally a standard curve was generated where AlphaLISA reagents were incubated in wells spiked with recombinant human PCSK9 diluted in tissue culture media from 5000 ng/mL to 0.6 ng/mL. Following incubation with AlphaLISA reagents plates were read on an EnVision (Perkin Elmer) plate reader at an excitation wavelength of […] and emission/detection wavelength of […]. To determine compound IC50 the data for HPEand ZPEcontrol wells were first analyzed and the mean, standard deviation and Z prime calculated for each plate. The test compound data were converted into percent effect, using the ZPE and HPE controls as 0% and 100% activity, respectively. The equation used for converting each well reading into percent effect was:
IC50 was then calculated and reported as the midpoint in the percent effect curve in molar units and the values are reported under the Cell Based PCSK9 IC50 (μM) column header within Table 2 Biological Data. […]

human PCSK9 [2] = test: Cell Free PCSK9 Assay (PCSK9-luciferase mRNA translation in HeLa lysate); format: biochemical; conditions: PCSK9-luciferase RNA, 30° C. for 45 minutes, top concentration 100 μM
Experimental: As defined herein inhibition of translation of PCSK9 mRNA to PCSK9 protein is determined by the “Cell Free PCSK9 Assay” provided herein in the specification. This “Cell Free PCSK9 Assay” is specific to the production of PCSK9 protein from PCSK9 mRNA and therefore detects inhibitors of this translational process rather than other mechanisms by which PCSK9 protein may be reduced.
In order to eliminate the permeability barrier inherent to the WT7 cell-based assays a cell-free system was also established to assess compound activitiy. A sequence containing the full length human PCSK9 (NCBI reference identifier, NM_174936.3, where coding sequence start annotated at position 363) along with 84 additional 3′ nucleotides, comprising a V5 tag and polylinker followed by an in frame modified firefly luciferase reporter (corresponding to nucleotide positions 283-1929 of pGL3, GenBank reference identifier JN542721.1) was cloned into the pT7CFE1 expression vector (ThermoScientific). The construct was then in-vitro transcribed using the MEGAscript T7 Kit (Life Technologies) and RNA subsequently purified incorporating the MEGAclear Kit (Life Technologies) according to manufacturer's protocols. HeLa cell lysates were prepared following the protocols described by Mikami (reference is Cell-Free Protein Synthesis Systems with Extracts from Cultured Human Cells, S. Mikami, T. Kobayashi and H. Imataka; from Methods in Molecular Biology, vol. 607, pages 43-52, Y. Endo et al. (eds.), Humana Press, 2010) with the following modifications. Cells were grown in a 20 L volume of CD293 medium (Gibco 11765-054) with Glutamax increased to 4 mM, penicillin at 100 U/mL and other additions as previously described by Mikami. Growth was in a 50 L wavebag at a rocker speed of 25 rpm and angle 6.1 with 5% CO2 and 0.2 LPM flow rate with cells harvested at a density of 2-2.5e6/mL. Lysates additionally contained 1 tablet of Roche cOmplete-EDTA protease inhibitors per 50 mL with tris(2-carboxyethyl)phosphine (Biovectra) substituted for dithiothreitol, and were clarified by an additional final centrifugation at 10,000 rpm in a Sorvall SS34 rotor at 4° C. for 10 minutes. Compound screening was performed in 384-well plates in an eleven point, 0.5 log dilution format at a top test compound concentration of 100 μM in a final volume of 0.5% DMSO. In additional to these test compound conditions each screening plate also included wells that contained 100 μM of compound example 16 (as depicted in WO2014170786; N-(3-chloropyridin-2-yl)-N-[(3R)-piperidin-3-yl]-4-(3H-[1,2,3]triazolo[4,5-b]pyridin-3-yl)benzamide) as a positive assay control defined as high percent effect, HPE, as well as wells containing media in 0.5% DMSO as a negative treatment control defined as zero percent effect, ZPE. Compounds were incubated at 30° C. for 45 minutes in a solution containing 0.1 μg of purified, in-vitro transcribed RNA together with the cell-free reaction mixture (consisting of 1.6 mM Mg and 112 mM K salts, 4.6 mM tris(2-carboxyethyl)phosphine (Biovectra), 5.0 μL HeLa lysate, 0.2 μL RNAsin (Promega) and 1.0 μL energy mix (containing 1.25 mM ATP (Sigma), 0.12 mM GTP (Sigma), 20 mM creatine phosphate (Santa Cruz), 60 μg/mL creatine phosphokinase (Sigma), 90 μg/mL tRNA (Sigma) and the 20 amino acids (Life Technologies) at final concentrations described by Mikami) and brought up in water to a final volume of 10 μL in water. Upon assay completion 1 μL from each reaction solution was removed and transferred to a second 384-well Optiplate (Perkin Elmer) containing 24 μL of SteadyGlo (Promega) and signal intensity was measured on the Envision (Perkin Elmer) using the enhanced luminescence protocol. To determine compound IC50 the data for HPE and ZPE control wells were first analyzed and the mean, standard deviation and Z prime calculated for each plate. The test compound data were converted into percent effect, using the ZPE and HPE controls as 0% and 100% activity, respectively, applying Equation 1 above. […]

Cn1ncc(-c2ccc(C(=O)N(c3ncccc3Cl)[C@@H]3CCCNC3)nc2)c1-c1nn[nH]n1 [Example 2, N-(3-chloropyridin-2-yl)-5-[1-methyl-5-(2H-tetrazol-5-yl)-1H-pyrazol-4-yl]-N-[(3R)-piperidin-3-yl]pyridine-2-carboxamide]
IC50 (human PCSK9 [1]): > 20 µM
IC50 (human PCSK9 [2]): 10.5 µM

Cc1cccnc1N(C(=O)c1ccc(-c2cnn(C)c2-c2nn[nH]n2)c(F)c1)[C@@H]1CCCNC1 [Example 4, N-(3-methylpyridin-2-yl)-3-fluoro-4-[1-methyl-5-(2H-tetrazol-5-yl)-1H-pyrazol-4-yl]-N-[(3R)-piperidin-3-yl]benzamide]
IC50 (human PCSK9 [1]): > 20 µM
IC50 (human PCSK9 [2]): 15.3 µM

CCOC(=O)O[C@H](C)n1nnnc1-c1c(-c2ccc(C(=O)N(c3ncccc3Cl)[C@@H]3CCCNC3)cc2)cnn1C [Example 12, ethyl (R)-1-{5-[1-methyl-4-(4-{(3-chloropyridin-2-yl)[(3R)-piperidin-3-yl]carbamoyl}phenyl)-1H-pyrazol-5-yl]-1H-tetrazol-1-yl}ethyl carbonate]
IC50 (human PCSK9 [1]): 17.3 µM
IC50 (human PCSK9 [2]): 15.4 µM

Cc1cccnc1N(C(=O)c1ccc(-c2cnn(C)c2-c2nn[nH]n2)cn1)[C@@H]1CCCNC1 [Example 1, N-(3-methylpyridin-2-yl)-5-[1-methyl-5-(2H-tetrazol-5-yl)-1H-pyrazol-4-yl]-N-[(3R)-piperidin-3-yl]pyridine-2-carboxamide]
IC50 (human PCSK9 [1]): > 20 µM
IC50 (human PCSK9 [2]): 5.8 µM
